In US5371284A, “Phenyl acetylenic acetals” (Schering Corporation, priority 1993, dated 1994):

System: LTC4-induced contractions of guinea pig lung parenchyma
Test: Inhibition of LTC4-induced contractions of guinea pig lung parenchyma strips
Set-up: species or system guinea pig (male Hartley)
Details: test compound at 10)M (so in the source); 1×10^-8 M LTC4, compound added 5 min before challenge; footnote c = statistically significant (p = 0.05), Student's t test
Experimental: The anti-allergy method of this invention is shown by tests which measure a compound's inhibition of contractile responses of strips of lung parenchyma. Male Hartley guinea pigs (600-800 g body weight) were killed by a blow to the head and then exsanguinated. The lungs were inflated with 5 ml. of air through the trachea, the chest cavity opened, and the lungs perfused in situ through the pulmonary artery with Tyrode's solution. The lower lobe of each lung was excised and dissected into four strips (3×10 mm), each of which was suspended in a constant temperature (37° C.) organ bath containing 10 mL of Tyrode's solution and aerated with 95% O2 -5% CO2. Each lung strip was attached to a Harvard isometric muscle transducer and tension was recorded with a Harvard recording module. The initial tension was adjusted to 2 g and the tissues allowed to equilibrate until a steady baseline was reached. […] The peak contractile response to LTC4 was recorded and expressed as a percent of the maximum response (obtained with 1×10^-4 M histamine) of that lung strip. The effect of each test compound is expressed as percent inhibition of the contractile response calculated as follows: [formula]

## CCCc1c(OCC(O)COc2ccc3c(=O)cc(C(=O)O)oc3c2CCC)ccc(C(C)=O)c1O (stereo not shown) [FPL 55712]
  % Inhibition of LTC4-induced contractions of guinea pig lung parenchyma: 99%
